Assay results: the supplement of paper PMC10307832

How the values were obtained:
Assay in all cases: relative viability (nuclei count vs DMSO), 5 days (fraction); higher = more cells survive
XMD13-2 + Foretinib = compound: C1CC1C(=O)NC2=NNC3=C2C=CC(=C3)C4=CC(=CC=C4)C(=O)NC5CC5 [XMD13-2] + COc1cc2c(Oc3ccc(NC(=O)C4(C(=O)Nc5ccc(F)cc5)CC4)cc3F)ccnc2cc1OCCCN1CCOCC1 [Foretinib] (partner 0.25 µM)
Summary of the method: (§1)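 Dosing by pin tool came one day after lung cancer cell lines were seeded in 1536-well plates, using either one drug or a fixed anchor-drug dose plus five library-drug doses (not always all listed) in √10 steps. After 5 days, nuclei were counted on 4× images. Relative viability is treated-well nuclei count divided by vehicle-well nuclei count, and values are medians of duplicate plates.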

Dasatinib + Pemetrexed = compound: Cc1nc(Nc2ncc(C(=O)Nc3c(C)cccc3Cl)s2)cc(N2CCN(CCO)CC2)n1 [Dasatinib] + Nc1nc2[nH]cc(CCc3ccc(C(=O)N[C@@H](CCC(=O)O)C(=O)O)cc3)c2c(=O)[nH]1 [Pemetrexed] (partner 0.2 µM)
Summary of the method: as §1

XMD13-2 + Pemetrexed = compound: C1CC1C(=O)NC2=NNC3=C2C=CC(=C3)C4=CC(=CC=C4)C(=O)NC5CC5 [XMD13-2] + Nc1nc2[nH]cc(CCc3ccc(C(=O)N[C@@H](CCC(=O)O)C(=O)O)cc3)c2c(=O)[nH]1 [Pemetrexed] (partner 0.2 µM)
Summary of the method: as §1

XMD13-2 + Lapatinib = compound: C1CC1C(=O)NC2=NNC3=C2C=CC(=C3)C4=CC(=CC=C4)C(=O)NC5CC5 [XMD13-2] + CS(=O)(=O)CCNCc1ccc(-c2ccc3ncnc(Nc4ccc(OCc5cccc(F)c5)c(Cl)c4)c3c2)o1 [Lapatinib] (partner 2 µM)
Summary of the method: as §1

UMC-11
relative viability (XMD13-2 + Foretinib; first compound 0.05 µM): 1.23
relative viability (XMD13-2 + Foretinib; first compound 0.1581 µM): 1.09
relative viability (XMD13-2 + Foretinib; first compound 0.5 µM): 1
relative viability (XMD13-2 + Foretinib; first compound 1.581 µM): 1.08
relative viability (XMD13-2 + Foretinib; first compound 5 µM): 1.06
relative viability (Dasatinib + Pemetrexed; first compound 0.005 µM): 0.736
relative viability (Dasatinib + Pemetrexed; first compound 0.01581 µM): 0.656
relative viability (Dasatinib + Pemetrexed; first compound 0.05 µM): 0.593
relative viability (Dasatinib + Pemetrexed; first compound 0.1581 µM): 0.469
relative viability (Dasatinib + Pemetrexed; first compound 0.5 µM): 0.391
relative viability (XMD13-2 + Pemetrexed; first compound 0.05 µM): 0.914
relative viability (XMD13-2 + Pemetrexed; first compound 0.1581 µM): 0.761
relative viability (XMD13-2 + Pemetrexed; first compound 0.5 µM): 0.791
relative viability (XMD13-2 + Pemetrexed; first compound 1.581 µM): 0.845
relative viability (XMD13-2 + Pemetrexed; first compound 5 µM): 0.772
relative viability (XMD13-2 + Lapatinib; first compound 0.05 µM): 1.18
relative viability (XMD13-2 + Lapatinib; first compound 0.1581 µM): 0.856
relative viability (XMD13-2 + Lapatinib; first compound 0.5 µM): 1.01
relative viability (XMD13-2 + Lapatinib; first compound 1.581 µM): 0.901
relative viability (XMD13-2 + Lapatinib; first compound 5 µM): 1.08
